Patent publication US20260262643A1, “HERBICIDAL BENZOXAZINES” (FMC CORPORATION, priority 2022, published 2026)

Tests used:
[1] = test system: wheat; assay: Test C postemergence; assay type: in vivo, Triticum aestivum; details: 10 days
Summary of the method: (§1)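 Seeds in loam–sand blend received preemergence directed soil spray of test chemicals in non-phytotoxic solvent with surfactant; postemergence treatment was applied at one- to two-leaf stage (2–10 cm). After 10 days in greenhouse, injury rated visually versus untreated controls, 0 (no effect) to 100 (complete control).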

[2] = test system: soybean; assay: Test C preemergence; assay type: in vivo, Glycine max; details: for Plant response rating, Soybean: Preemergence; for Soybean plant response rating: Test C, preemergence, 125 g ai/ha
Summary of the method: as §1

[3] = test system: green foxtail; assay: Test C postemergence; assay type: in vivo, Setaria viridis; details: 10 days
Summary of the method: as §1

[4] = test system: oat, wild; assay: Test C postemergence; assay type: in vivo, Avena fatua; details: 10 days
Summary of the method: as §1

[5] = test system: rice; assay: Test D flooded paddy test; assay type: in vivo, Oryza sativa; details: 250 g ai/ha, applied to paddy water, visual rating after 13 to 14 days, scale 0 to 100 (0 no effect, 100 complete control)
Summary of the method: (§2)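 Plants at the 2-leaf stage were grown in pots flooded to 3 cm, and compound was applied directly into the paddy water, with depth kept throughout. After 13–14 days in a greenhouse, injury was rated visually against untreated controls on a 0–100 scale (100 = complete control); a dash means not tested.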

[6] = test system: corn; assay: Test C preemergence; assay type: in vivo, Zea mays; details: for Plant response rating, Corn: Preemergence; for Corn plant response rating: Test C, preemergence, 125 g ai/ha
Summary of the method: as §1

[7] = test system: oat, wild; assay: Test C preemergence; assay type: in vivo, Avena fatua; details: for Plant response rating, Oat, Wild: Preemergence; for Oat, Wild plant response rating: Test C, preemergence, 125 g ai/ha
Summary of the method: as §1

[8] = test system: corn; assay: Test C postemergence; assay type: in vivo, Zea mays; details: 10 days
Summary of the method: as §1

[9] = test system: sedge, umbrella; assay: Test D flooded paddy test; assay type: in vivo, Cyperus difformis; details: 250 g ai/ha, applied to paddy water, visual rating after 13 to 14 days, scale 0 to 100 (0 no effect, 100 complete control)
Summary of the method: as §2

[10] = test system: kochia; assay: Test C preemergence; assay type: in vivo, Bassia scoparia; details: for Plant response rating, Kochia: Preemergence; for Kochia plant response rating: Test C, preemergence, 125 g ai/ha
Summary of the method: as §1

[11] = test system: soybean; assay: Test C postemergence; assay type: in vivo, Glycine max; details: 10 days
Summary of the method: as §1

[12] = test system: ryegrass, Italian; assay: Test C postemergence; assay type: in vivo, Lolium multiflorum; details: 10 days
Summary of the method: as §1

[13] = test system: blackgrass; assay: Test C postemergence; assay type: in vivo, Alopecurus myosuroides; details: 10 days
Summary of the method: as §1

[14] = test system: green foxtail; assay: Test C preemergence; assay type: in vivo, Setaria viridis; details: for Plant response rating, Foxtail, Green: Preemergence; for Foxtail, Green plant response rating: Test C, preemergence, 125 g ai/ha
Summary of the method: as §1

[15] = test system: barnyardgrass; assay: Test D flooded paddy test; assay type: in vivo, Echinochloa crus-galli; details: 250 g ai/ha, applied to paddy water, visual rating after 13 to 14 days, scale 0 to 100 (0 no effect, 100 complete control)
Summary of the method: as §2

[16] = test system: wheat; assay: Test C preemergence; assay type: in vivo, Triticum aestivum; details: for Plant response rating, Wheat: Preemergence; for Wheat plant response rating: Test C, preemergence, 125 g ai/ha
Summary of the method: as §1

[17] = test system: ducksalad; assay: Test D flooded paddy test; assay type: in vivo, Heteranthera limosa; details: 250 g ai/ha, applied to paddy water, visual rating after 13 to 14 days, scale 0 to 100 (0 no effect, 100 complete control)
Summary of the method: as §2

[18] = test system: pigweed, palmer; assay: Test C preemergence; assay type: in vivo, Amaranthus palmeri; details: for Plant response rating, Pigweed, Palmer: Preemergence; for Pigweed, Palmer plant response rating: Test C, preemergence, 125 g ai/ha
Summary of the method: as §1

[19] = test system: ragweed; assay: Test C preemergence; assay type: in vivo, Ambrosia artemisiifolia; details: for Plant response rating, Ragweed: Preemergence; for Ragweed plant response rating: Test C, preemergence, 125 g ai/ha
Summary of the method: as §1

[20] = test system: barnyardgrass; assay: Test C preemergence; assay type: in vivo, Echinochloa crusgalli; details: for Plant response rating, Barnyardgrass: Preemergence; for Barnyardgrass plant response rating: Test C, preemergence, 125 g ai/ha
Summary of the method: as §1

[21] = test system: barnyardgrass; assay: Test C postemergence; assay type: in vivo, Echinochloa crusgalli; details: 10 days
Summary of the method: as §1

[22] = test system: pigweed, palmer; assay: Test C postemergence; assay type: in vivo, Amaranthus palmeri; details: 10 days
Summary of the method: as §1

[23] = test system: horseweed; assay: Test C postemergence; assay type: in vivo, Erigeron canadensis; details: 10 days
Summary of the method: as §1

[24] = test system: ragweed; assay: Test C postemergence; assay type: in vivo, Ambrosia artemisiifolia; details: 10 days
Summary of the method: as §1

[25] = test system: blackgrass; assay: Test C preemergence; assay type: in vivo, Alopecurus myosuroides; details: for Plant response rating, Blackgrass: Preemergence; for Blackgrass plant response rating: Test C, preemergence, 125 g ai/ha
Summary of the method: as §1

[26] = test system: kochia; assay: Test C postemergence; assay type: in vivo, Bassia scoparia; details: 10 days
Summary of the method: as §1

[27] = test system: galium; assay: Test C postemergence; assay type: in vivo, Galium aparine; details: 10 days
Summary of the method: as §1

[28] = 125 g ai/ha, postemergence, 0 to 100 scale, 0 no effect, 100 complete control
[29] = Postemergence, 31 g ai/ha, 0 to 100 scale, 0 no effect, 100 complete control
[30] = 31 g ai/ha, 0 to 100 scale, 0 no effect, 100 complete control
[31] = 0 to 100 scale (0 no effect, 100 complete control)
[32] = Postemergence, 500 g ai/ha, visual 0 to 100 scale (0 no effect, 100 complete control)
[33] = 500 g ai/ha, visual rating after 10 days, 0 to 100 scale (0 no effect, 100 complete control)

SMILES: CCC(O)(CC)c1ncn(-c2ccc(C)c(C(=O)N3C[C@H](C)Oc4c(Cl)cccc43)c2)n1 [Compound 180]
- Plant response rating, Wheat [1, 28]: 20
- Plant response rating, Wheat [1, 29]: 10
- Plant response rating, Soybean [2, 30]: 0
- Soybean plant response rating [2, 31]: 50
- Plant response rating, Foxtail, Green [3, 28]: 20
- Plant response rating, Foxtail, Green [3, 29]: 10
- Plant response rating, Oat, Wild [4, 28]: 70
- Plant response rating, Oat, Wild [4, 29]: 0
- Plant response rating, Rice (Flood) [5]: 0
- Plant response rating, Corn [6, 30]: 0
- Corn plant response rating [6, 31]: 0
- Plant response rating, Oat, Wild [7, 30]: 0
- Oat, Wild plant response rating [7, 31]: 50
- Plant response rating, Corn [8, 28]: 10
- Plant response rating, Corn [8, 29]: 0
- Plant response rating, Sedge, Umbrella (Flood) [9]: 40
- Plant response rating, Kochia [10, 30]: 0
- Kochia plant response rating [10, 31]: 0
- Plant response rating, Soybean [11, 28]: 100
- Plant response rating, Soybean [11, 29]: 90
- Plant response rating, Ryegrass, Italian [12, 28]: 50
- Plant response rating, Ryegrass, Italian [12, 29]: 0
- Plant response rating, Blackgrass [13, 28]: 10
- Plant response rating, Blackgrass [13, 29]: 0
- Plant response rating, Foxtail, Green [14, 30]: 30
- Foxtail, Green plant response rating [14, 31]: 70
- Plant response rating, Barnyardgrass (Flood) [15]: 0
- Plant response rating, Wheat [16, 30]: 0
- Wheat plant response rating [16, 31]: 0
- Plant response rating, Ducksalad (Flood) [17]: 65
- Plant response rating, Pigweed, Palmer [18, 30]: 0
- Pigweed, Palmer plant response rating [18, 31]: 60
- Plant response rating, Ragweed [19, 30]: 0
- Ragweed plant response rating [19, 31]: 20
- Plant response rating, Barnyardgrass [20, 30]: 0
- Barnyardgrass plant response rating [20, 31]: 60
- Plant response rating, Barnyardgrass [21, 28]: 20
- Plant response rating, Barnyardgrass [21, 29]: 10
- Plant response rating, Pigweed, Palmer [22, 28]: 70
- Plant response rating, Pigweed, Palmer [22, 29]: 30
- Plant response rating, Horseweed [23, 28]: 0
- Plant response rating, Horseweed [23, 29]: 0
- Plant response rating, Ragweed [24, 28]: 60
- Plant response rating, Ragweed [24, 29]: 40
- Plant response rating, Blackgrass [25, 30]: 0
- Blackgrass plant response rating [25, 31]: 20
- Plant response rating, Kochia [26, 28]: 50
- Plant response rating, Kochia [26, 29]: 30
- Plant response rating, Galium [27, 28]: 90
- Plant response rating, Galium [27, 29]: 70

SMILES: CCc1c(C)cc(-n2cnc(C(C)C)n2)cc1C(=O)N1C[C@H](C)Oc2c(Cl)cccc21 [Compound 179]
- Plant response rating, Wheat [1, 28]: 10
- Plant response rating, Wheat [1, 32]: 10
- Plant response rating, Soybean [2, 33]: 0
- Soybean plant response rating [2, 31]: 0
- Plant response rating, Foxtail, Green [3, 28]: 10
- Plant response rating, Foxtail, Green [3, 32]: 20
- Plant response rating, Oat, Wild [4, 28]: 0
- Plant response rating, Oat, Wild [4, 32]: 0
- Plant response rating, Rice (Flood) [5]: 0
- Plant response rating, Corn [6, 33]: 0
- Corn plant response rating [6, 31]: 0
- Plant response rating, Oat, Wild [7, 33]: 0
- Oat, Wild plant response rating [7, 31]: 0
- Plant response rating, Corn [8, 28]: 0
- Plant response rating, Corn [8, 32]: 10
- Plant response rating, Sedge, Umbrella (Flood) [9]: 0
- Plant response rating, Kochia [10, 33]: 0
- Kochia plant response rating [10, 31]: 0
- Plant response rating, Soybean [11, 32]: 40
- Plant response rating, Ryegrass, Italian [12, 28]: 0
- Plant response rating, Ryegrass, Italian [12, 32]: 20
- Plant response rating, Blackgrass [13, 28]: 0
- Plant response rating, Blackgrass [13, 32]: 0
- Plant response rating, Foxtail, Green [14, 33]: 50
- Foxtail, Green plant response rating [14, 31]: 0
- Plant response rating, Barnyardgrass (Flood) [15]: 0
- Plant response rating, Wheat [16, 33]: 0
- Wheat plant response rating [16, 31]: 0
- Plant response rating, Ducksalad (Flood) [17]: 0
- Plant response rating, Pigweed, Palmer [18, 33]: 10
- Pigweed, Palmer plant response rating [18, 31]: 0
- Plant response rating, Ragweed [19, 33]: 0
- Ragweed plant response rating [19, 31]: 0
- Plant response rating, Barnyardgrass [20, 33]: 0
- Barnyardgrass plant response rating [20, 31]: 0
- Plant response rating, Barnyardgrass [21, 28]: 10
- Plant response rating, Barnyardgrass [21, 32]: 10
- Plant response rating, Pigweed, Palmer [22, 28]: 10
- Plant response rating, Pigweed, Palmer [22, 32]: 60
- Plant response rating, Horseweed [23, 28]: 0
- Plant response rating, Horseweed [23, 32]: 40
- Plant response rating, Ragweed [24, 32]: 10
- Plant response rating, Blackgrass [25, 33]: 0
- Blackgrass plant response rating [25, 31]: 0
- Plant response rating, Kochia [26, 28]: 30
- Plant response rating, Kochia [26, 32]: 30
- Plant response rating, Galium [27, 28]: 50
- Plant response rating, Galium [27, 32]: 90
